Data reported in US7144866B2, “Avermectin derivatives” (The Kitasato Institute, priority 2000, dated 2006).

What was measured:
Caenorhabditis elegans = assay: Antiparasitic activity against Caenorhabditis elegans in a 96 well microplate, movement graded 0 to 3, MIC; assay type: cell-based; settings: concentration required to give Indication 2 (or 3) for caenorhabditis elegans; incubated at 20° C., observed after 24 and 48 hours
Description: (§1) Methods for determining antiparasitic effects of the compounds disclosed by the present invention are explained below.
(§2) As model insects for simple determination of antiparasitic and insecticidal activities, those insects are desired which can be easily obtained and bred in laboratories, and have no pathogenicity to a human. Caenorhabditis elegans, an unparasitic eelworm widely used in experiments of genetics, was used as a typical steam worm, and artemia salina used as feed for tropical fish and named Brine shrimp, was used instead of insects. […]
(§3) Each well of a 96 well microplate was filled with the solution of the test compound (methanol as a solvent), and the solvent was removed using a vacuum pump, then 250 μl of the assay medium was added to each wells (the assay medium was prepared by dissolving 7.5 mM sodium hydrogencarbonate, 7.5 mM potassium chloride, 7.5 mM calcium chloride dihydrate and 7.5 mM magnesium sulfate heptahydrate in distilled water and adding 0.01% of lecithin to the solution), and then the microplate was shaken using a microplate mixer for 15 minutes. […] The results were compared to those obtained without addition of the test compound, and evaluated by 4 grades. […]

artemia salina = assay: Insecticidal model activity against artemia salina (Brine shrimp) larvae in a 96 well microplate, movement graded 0 to 3, MIC; assay type: cell-based; settings: concentration required to give Indication 2 (or 3) for artemia salina; incubated at 20° C., observed after 24 and 48 hours
Description: as §1, §2, §3

With `CCC(C)C1O[C@]2(C=C[C@@H]1C)C[C@@H]1CC(C/C=C(\C)[C@@H](OC3C[C@H](OC)[C@@H](OC4C[C@H](OC)[C@@H](O)[C@H](C)O4)[C@H](C)O3)[C@@H](C)/C=C/C=C3\COC4[C@H](O)C(C)=CC(C(=O)O1)[C@]34O)O2` (some centres unmarked) [B1a*, avermectin B1a] the “C.E. minimum inhibitory concentration (MIC)” value (Caenorhabditis elegans) was 2 ng/mL and the “A.S. minimum inhibitory concentration (MIC)” value (artemia salina) was 0.5 ng/mL.
